The experiment has as its target T1, RAMP3-CLR (AM2 receptor) (Homo sapiens, UniProt O60896+Q16602).
T1 construct: FLAG; expressed in transfected cells; host or cells: HEK-293 or HEK-293S cells, transient transfection, 1:1 RAMP:CLR
Kind of experiment: (Ca^2+)i mobilization, HEK-293 cells, RAMP3 + CLR. The class given is cell-based. Particulars: HEK293, percentage of maximal (Ca^2+)i release with 10 μM ionomycin, mean ± S.E., n = 5. How it is done: HEK-293 cells, provided by Dr. Jügen Müller (University of Aston), were cultured in DMEM supplemented with 10% heat-inactivated FBS and kept at 37 °C in a humidified 95% air, 5% CO2 incubator. HEK-293S cells (a gift from AstraZeneca) were cultured in DMEM supplemented with 8% heat-inactivated FBS and kept at 37 °C in a humidified 95% air, 5% CO2 incubator. HEK-293 cells were transfected with FuGENE 6 (Roche Applied Science) in accordance with the manufacturer's instructions using a 1:3 (w:v) DNA:FuGENE ratio and a 1:1 ratio of RAMP to CLR. HEK-293S cells were seeded into 96-well poly-D-lysine-coated plates at a density of 15,000 cells/well (determined using a Countess^TM cell counter, Invitrogen) 1 day prior to transfection. HEK-293S cells were transiently transfected as described previously ([38]) using a 1:1 ratio of RAMP to CLR. The transfected cell lines were grown for 24–48 h prior to assaying.
Transfected HEK-293 cells were grown to confluence in black, clear bottomed, 96-well plates. […] Ligands were added robotically using a Mithras LB 940 multimode microplate reader in the range of 10 pM to 1 μM, and fluorescence was determined immediately post-injection with an excitation wavelength set to 485 nm and an emission wavelength set to 535 nm. […] Peak magnitude was calculated using five-point smoothing followed by correction against background fluorescence. […]

The structures appear in SMILES notation.

By Emax is commonly meant the greatest response seen or fitted, relative to the assay's reference.

T1 sequence (Q16602 23-461): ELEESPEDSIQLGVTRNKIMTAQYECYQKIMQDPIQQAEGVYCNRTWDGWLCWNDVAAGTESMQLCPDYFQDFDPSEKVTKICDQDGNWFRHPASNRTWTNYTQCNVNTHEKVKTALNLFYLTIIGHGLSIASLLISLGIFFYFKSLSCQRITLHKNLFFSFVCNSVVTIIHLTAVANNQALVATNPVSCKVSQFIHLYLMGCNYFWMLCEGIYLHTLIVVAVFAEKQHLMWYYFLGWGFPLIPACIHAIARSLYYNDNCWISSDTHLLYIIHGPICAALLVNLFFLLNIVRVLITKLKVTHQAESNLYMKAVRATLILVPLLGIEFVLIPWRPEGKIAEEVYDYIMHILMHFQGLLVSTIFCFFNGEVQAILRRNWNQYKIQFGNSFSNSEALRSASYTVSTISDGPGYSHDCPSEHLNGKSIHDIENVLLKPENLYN
T1 sequence (O60896 24-148): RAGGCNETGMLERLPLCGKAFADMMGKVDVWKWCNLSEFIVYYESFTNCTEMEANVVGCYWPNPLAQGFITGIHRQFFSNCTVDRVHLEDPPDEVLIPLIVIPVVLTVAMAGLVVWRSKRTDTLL

`CC[C@H](C)[C@H](NC(=O)[C@H](CCC(N)=O)NC(=O)[C@H](Cc1c[nH]cn1)NC(=O)[C@H](C)NC(=O)[C@H](CC(C)C)NC(=O)[C@H](CCCCN)NC(=O)[C@H](CCC(N)=O)NC(=O)[C@@H](NC(=O)[C@@H](NC(=O)[C@@H]1CSSC[C@H](NC(=O)CNC(=O)[C@H](Cc2ccccc2)NC(=O)[C@H](CO)NC(=O)[C@H](CCCNC(=N)N)NC(=O)[C@H](CC(C)C)NC(=O)CNC(=O)[C@H](CCC(N)=O)NC(=O)[C@H](Cc2ccccc2)NC(=O)[C@H](CC(N)=O)NC(=O)[C@H](CC(N)=O)NC(=O)[C@H](CCSC)NC(=O)[C@H](CO)NC(=O)[C@H](CCC(N)=O)NC(=O)[C@H](CCCNC(=N)N)NC(=O)[C@@H](N)Cc2ccc(O)cc2)C(=O)N[C@@H](CCCNC(=N)N)C(=O)N[C@@H](Cc2ccccc2)C(=O)NCC(=O)N[C@@H]([C@@H](C)O)C(=O)N1)[C@@H](C)O)C(C)C)C(=O)N[C@@H](Cc1ccc(O)cc1)C(=O)N[C@@H](CCC(N)=O)C(=O)N[C@@H](Cc1ccccc1)C(=O)N[C@H](C(=O)N[C@@H](CC(=O)O)C(=O)N[C@@H](CCCCN)C(=O)N[C@@H](CC(=O)O)C(=O)N[C@@H](CCCCN)C(=O)N[C@@H](CC(=O)O)C(=O)N[C@@H](CC(N)=O)C(=O)N[C@H](C(=O)N[C@@H](C)C(=O)N1CCC[C@H]1C(=O)N[C@@H](CCCNC(=N)N)C(=O)N[C@@H](CO)C(=O)N[C@@H](CCCCN)C(=O)N[C@H](C(=O)N[C@@H](CO)C(=O)N1CCC[C@H]1C(=O)N[C@@H](CCC(N)=O)C(=O)NCC(=O)N[C@@H](Cc1ccc(O)cc1)C(N)=O)[C@@H](C)CC)C(C)C)[C@@H](C)O` [AM, adrenomedullin]: the maximum response (Emax) came out at 56.7 ± 6.6%.
